# Experiments:
# bamyardgrass = assay: Test B flood test barnyardgrass; type: in vivo, Echinochloa crus-galli
# How it was run: (§1)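 Each value is a visual injury score relative to controls, with 10 meaning complete control and 0 no effect. Evaluation took place twelve to sixteen days after the 2-leaf-stage plants were treated and kept in the greenhouse.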
# corn = assay: Test B pre/postemergence corn; type: in vivo, Zea mays
# How it was run: (§2)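 Response is a visual 0-to-10 score relative to untreated plants, where 0 means no effect and 10 means complete control, taken twelve to sixteen days after application. Treatments went onto soil at planting and onto foliage of 1- to 4-leaf plants, using a surfactant-containing non-phytotoxic solvent.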
# blackgrass = assay: Test B pre/postemergence blackgrass; type: in vivo, Alopecurus myosuroides
# How it was run: as §2
# wild oat = assay: Test B pre/postemergence wild oat; type: in vivo, Avena fatua
# How it was run: as §2
# pigweed = assay: Test B pre/postemergence pigweed; type: in vivo, Amaranthus retroflexus
# How it was run: as §2
# smallflower flatsedge = assay: Test B flood test smallflower flatsedge; type: in vivo, Cyperus difformis
# How it was run: as §1
# crabgrass = assay: Test B pre/postemergence crabgrass; type: in vivo, Digitaria sanguinalis
# How it was run: as §2
# velvetleaf = assay: Test B pre/postemergence velvetleaf; type: in vivo, Abutilon theophrasti
# How it was run: as §2
# giant foxtail = assay: Test B pre/postemergence giant foxtail; type: in vivo, Setaria faberii
# How it was run: as §2
# sugar beet = assay: Test B pre/postemergence sugar beet; type: in vivo, Beta vulgaris
# How it was run: as §2
# cocklebur = assay: Test B pre/postemergence cocklebur; type: in vivo, Xanthium strumarium
# How it was run: as §2
# rice = assay: Test B flood test rice; type: in vivo, Oryza sativa
# How it was run: as §1
# soybean = assay: Test B pre/postemergence soybean; type: in vivo, Glycine max
# How it was run: as §2
# bedstraw = assay: Test B pre/postemergence bedstraw; type: in vivo, Galium aparine
# How it was run: as §2
# purple nutsedge = assay: Test B pre/postemergence purple nutsedge; type: in vivo, Cyperus rotundus
# How it was run: as §2
# surinam grass = assay: Test B pre/postemergence surinam grass; type: in vivo, Brachiaria decumbens
# How it was run: as §2
# [1] = Pre-emergence, Rate 1000 g/ha, scale 0 to 10 (0 no effect, 10 complete control)
# [2] = Rate 62 g/ha, headed Pre-emergence (flood test species), scale 0 to 10 (0 no effect, 10 complete control)
# [3] = Rate 125 g/ha, Pre-emergence, flood test species, scale 0 to 10 where 0 is no effect and 10 is complete control
# [4] = Rate 250 g/ha, Pre-emergence, flood-test species, scale 0 to 10, 0 is no effect, 10 is complete control
# [5] = Rate 500 g/ha, Pre-emergence, flood test species, scale 0 to 10 (0 no effect, 10 complete control)
# [6] = Preemergence, Rate 62 g/ha, scale of 0 to 10 where 0 is no effect and 10 is complete control
# [7] = Preemergence, Rate 250 g/ha, scale of 0 to 10 where 0 is no effect and 10 is complete control
# [8] = Preemergence, Rate 500 g/ha, scale of 0 to 10 where 0 is no effect and 10 is complete control
# [9] = Rate 62 g/ha, Postemergence, scale 0 to 10 (0 no effect, 10 complete control)
# [10] = Rate 125 g/ha, Postemergence, scale of 0 to 10 where 0 is no effect and 10 is complete control
# [11] = Rate 250 g/ha, Postemergence, scale of 0 to 10 where 0 is no effect and 10 is complete control
# [12] = Rate 500 g/ha, Postemergence, scale 0 to 10, 0 no effect, 10 complete control
smiles,measurement,setting,value
CC(C)N(C(=O)n1oc(=O)n(C2CCOCC2)c1=O)c1ccc(F)cc1 [Compound 310],Barnyardgrass plant response rating,bamyardgrass; [1],6
same,Barnyardgrass plant response rating,bamyardgrass; [2],0
same,Barnyardgrass plant response rating,bamyardgrass; [3],0
same,Barnyardgrass plant response rating,bamyardgrass; [4],4
same,Barnyardgrass plant response rating,bamyardgrass; [5],7
same,Corn plant response rating,corn; [6],0
same,Corn plant response rating (0 to 10 scale),"corn; Preemergence, Rate 125 g/ha",0
same,Corn plant response rating,corn; [7],0
same,Corn plant response rating,corn; [8],5
same,Corn plant response rating,corn; [9],0
same,Corn plant response rating,corn; [10],0
same,"Plant response rating, Corn",corn; [11],0
same,Corn plant response rating,corn; [12],0
same,Blackgrass plant response rating,blackgrass; [6],10
same,Blackgrass plant response rating (0 to 10 scale),"blackgrass; Preemergence, Rate 125 g/ha",10
same,Blackgrass plant response rating,blackgrass; [7],10
same,Blackgrass plant response rating,blackgrass; [8],10
same,Blackgrass plant response rating,blackgrass; [9],5
same,Blackgrass plant response rating,blackgrass; [10],7
same,"Plant response rating, Blackgrass",blackgrass; [11],9
same,Blackgrass plant response rating,blackgrass; [12],9
same,Wild oats plant response rating,wild oat; [6],8
same,Wild oats plant response rating (0 to 10 scale),"wild oat; Preemergence, Rate 125 g/ha",9
same,Wild oats plant response rating,wild oat; [7],9
same,Wild oats plant response rating,wild oat; [8],9
same,Wild oats plant response rating,wild oat; [9],3
same,Wild oats plant response rating,wild oat; [10],3
same,"Plant response rating, Wild oats",wild oat; [11],3
same,Redroot pigweed plant response rating,pigweed; [6],9
same,Redroot pigweed plant response rating (0 to 10 scale),"pigweed; Preemergence, Rate 125 g/ha",10
same,Redroot pigweed plant response rating,pigweed; [7],10
same,Redroot pigweed plant response rating,pigweed; [8],10
same,Redroot pigweed plant response rating,pigweed; [9],0
same,Redroot pigweed plant response rating,pigweed; [10],0
same,"Plant response rating, Redroot pigweed",pigweed; [11],3
same,S. Flatsedge plant response rating,smallflower flatsedge; [1],0
same,S. Flatsedge plant response rating,smallflower flatsedge; [2],0
same,S. Flatsedge plant response rating,smallflower flatsedge; [3],0
same,S. Flatsedge plant response rating,smallflower flatsedge; [4],0
same,S. Flatsedge plant response rating,smallflower flatsedge; [5],3
same,Crabgrass plant response rating,crabgrass; [6],5
same,Crabgrass plant response rating (0 to 10 scale),"crabgrass; Preemergence, Rate 125 g/ha",5
same,Crabgrass plant response rating,crabgrass; [7],7
same,Crabgrass plant response rating,crabgrass; [8],7
same,Crabgrass plant response rating,crabgrass; [9],8
same,Crabgrass plant response rating,crabgrass; [10],9
same,"Plant response rating, Crabgrass",crabgrass; [11],9
same,Velvetleaf plant response rating,velvetleaf; [6],2
same,Velvetleaf plant response rating (0 to 10 scale),"velvetleaf; Preemergence, Rate 125 g/ha",3
same,Velvetleaf plant response rating,velvetleaf; [7],7
same,Velvetleaf plant response rating,velvetleaf; [8],8
same,Velvetleaf plant response rating,velvetleaf; [9],2
same,Velvetleaf plant response rating,velvetleaf; [10],3
same,"Plant response rating, Velvetleaf",velvetleaf; [11],4
same,Giant foxtail plant response rating,giant foxtail; [6],10
same,Giant foxtail plant response rating (0 to 10 scale),"giant foxtail; Preemergence, Rate 125 g/ha",10
same,Giant foxtail plant response rating,giant foxtail; [7],10
same,Giant foxtail plant response rating,giant foxtail; [8],10
same,Giant foxtail plant response rating,giant foxtail; [9],7
same,Giant foxtail plant response rating,giant foxtail; [10],7
same,"Plant response rating, Giant foxtail",giant foxtail; [11],8
same,Sugarbeets plant response rating,sugar beet; [6],5
same,Sugarbeets plant response rating (0 to 10 scale),"sugar beet; Preemergence, Rate 125 g/ha",7
same,Sugarbeets plant response rating,sugar beet; [7],10
same,Sugarbeets plant response rating,sugar beet; [8],10
same,Sugarbeets plant response rating,sugar beet; [9],0
same,Sugarbeets plant response rating,sugar beet; [10],0
same,"Plant response rating, Sugarbeets",sugar beet; [11],2
same,Cocklebur plant response rating,cocklebur; [6],0
same,Cocklebur plant response rating (0 to 10 scale),"cocklebur; Preemergence, Rate 125 g/ha",0
same,Cocklebur plant response rating,cocklebur; [7],2
same,Cocklebur plant response rating,cocklebur; [8],4
same,Cocklebur plant response rating,cocklebur; [9],0
same,Cocklebur plant response rating,cocklebur; [10],0
same,"Plant response rating, Cocklebur",cocklebur; [11],2
same,Cocklebur plant response rating,cocklebur; [12],7
same,Rice plant response rating,rice; [1],0
same,Rice plant response rating,rice; [2],0
same,Rice plant response rating,rice; [3],0
same,Rice plant response rating,rice; [4],0
same,Rice plant response rating,rice; [5],0
same,Soybean plant response rating,soybean; [6],0
same,Soybean plant response rating (0 to 10 scale),"soybean; Preemergence, Rate 125 g/ha",0
same,Soybean plant response rating,soybean; [7],2
same,Soybean plant response rating,soybean; [8],5
same,Soybean plant response rating,soybean; [9],4
same,Soybean plant response rating,soybean; [10],4
same,"Plant response rating, Soybean",soybean; [11],4
same,Bedstraw plant response rating,bedstraw; [6],2
same,Bedstraw plant response rating (0 to 10 scale),"bedstraw; Preemergence, Rate 125 g/ha",3
same,Bedstraw plant response rating,bedstraw; [7],5
same,Bedstraw plant response rating,bedstraw; [8],10
same,Bedstraw plant response rating,bedstraw; [9],4
same,Bedstraw plant response rating,bedstraw; [10],4
same,"Plant response rating, Bedstraw",bedstraw; [11],7
same,Bedstraw plant response rating,bedstraw; [12],5
same,Nutsedge plant response rating,purple nutsedge; [6],0
same,Nutsedge plant response rating (0 to 10 scale),"purple nutsedge; Preemergence, Rate 125 g/ha",0
same,Nutsedge plant response rating,purple nutsedge; [7],10
same,Nutsedge plant response rating,purple nutsedge; [8],10
same,Nutsedge plant response rating,purple nutsedge; [9],2
same,Nutsedge plant response rating,purple nutsedge; [10],3
same,"Plant response rating, Nutsedge",purple nutsedge; [11],6
same,B. signalgrass plant response rating,surinam grass; [6],4
same,"B. signalgrass plant response rating (0 to 10 scale, 0 is no effect, 10 is complete control)","surinam grass; Preemergence, Rate 125 g/ha",4
same,B. signalgrass plant response rating,surinam grass; [7],7
same,B. signalgrass plant response rating,surinam grass; [8],8
same,B. signalgrass plant response rating,surinam grass; [9],2
same,B. signalgrass plant response rating,surinam grass; [10],3
same,"Plant response rating, B. signalgrass",surinam grass; [11],7
same,B. signalgrass plant response rating,surinam grass; [12],7

# Source: patent publication US6737383B1, “Herbicidal oxadiazolidines” (priority 1999, dated 2004)
